The target of one assay is hNAMPT protein (Homo sapiens (Human), UniProt P43490). The experiment in a line: NAMPT enzyme assay (TR-FRET/HTRF with BodiPY ligand). Format: binding. The note with it: for inhibition at 1 µM: NAMPT inhibition at compound concentration 1 μM, read-out: Percent Inhibition; for IC50: NAMPT inhibition, IC50 range class. Put shortly:
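Ligand displacement by TR-FRET: BodiPY emission (520 nm) over terbium (486 nm) after 320 nm excitation. Compound, BodiPY ligand, hNAMPT and anti-6His-Tb incubated 1 h at room temperature, dark, at pH 7.5. Percent inhibition computed versus DMSO; concentration-response curves fitted for IC50.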
(In TR-FRET formats the signal depends on donor and acceptor labels being close together.)

For the next assay, the system named is PC3 cells. The experiment in a line: PC3 growth inhibition (Cell-titer glo, 72 hours). Format: cell-based. To be noted: Homo sapiens, PC-3, 72 h, read-out: Percent Viability, PC3 cells, compound concentration 1.667 μM, 72 hours. The method in brief:
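After 72 h compound treatment in AIM serum-free medium (37 °C, 5% CO2), viability of overnight-plated PC3 cells (8×10^4 cells/ml, RPMI1640-maintained) is read by CellTiter-Glo luminescence versus DMSO. Curves give GI50, LD50 or single-concentration % remaining viability.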

Bounds are passed on as bounds.

Chain of hNAMPT protein (P43490 whole entry): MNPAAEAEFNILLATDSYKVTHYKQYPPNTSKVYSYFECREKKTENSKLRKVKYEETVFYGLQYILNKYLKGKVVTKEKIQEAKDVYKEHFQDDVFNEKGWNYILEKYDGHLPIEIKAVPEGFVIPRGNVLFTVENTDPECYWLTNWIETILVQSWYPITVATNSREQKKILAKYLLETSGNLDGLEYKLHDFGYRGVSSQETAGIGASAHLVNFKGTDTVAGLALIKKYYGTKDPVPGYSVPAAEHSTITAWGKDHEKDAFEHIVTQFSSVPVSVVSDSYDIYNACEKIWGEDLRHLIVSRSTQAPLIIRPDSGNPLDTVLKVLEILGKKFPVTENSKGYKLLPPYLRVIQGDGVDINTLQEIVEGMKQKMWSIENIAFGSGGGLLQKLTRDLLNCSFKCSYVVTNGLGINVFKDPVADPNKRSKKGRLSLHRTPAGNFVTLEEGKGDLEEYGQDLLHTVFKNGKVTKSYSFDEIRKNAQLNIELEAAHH

Regarding `CCOc1cc(-c2cccnc2OC)nc2cc(C(=O)NCc3nc4ccncc4[nH]3)ccc12` [Compound I-192, 4-ethoxy-N-(3H-imidazo[4,5-c]pyridin-2-ylmethyl)-2-(2-methoxypyridin-3-yl)quinoline-7-carboxamide], at hNAMPT protein, the inhibition at 1 µM came out at 100% and the IC50 is under 0.01 µM. In addition, the viability at 1.667 µM in the assay on PC3 cells worked out at 3%.
For `CCOc1cc(-c2ccc(OC)nc2)nc2cc(C(=O)NCc3nc4cnccc4[nH]3)ccc12` [Compound I-193, 4-ethoxy-N-(1H-imidazo[4,5-c]pyridin-2-ylmethyl)-2-(6-methoxypyridin-3-yl)quinoline-7-carboxamide] the same measures were over 99%, under 0.01 µM and 3%.
As for `CCOc1cc(-c2ccnc(OC)c2)nc2cc(C(=O)NCc3nc4cnccc4[nH]3)ccc12` [Compound I-194, 4-ethoxy-N-(1H-imidazo[4,5-c]pyridin-2-ylmethyl)-2-(2-methoxypyridin-4-yl)quinoline-7-carboxamide], at hNAMPT protein, the inhibition at 1 µM is 100% and the half-maximal inhibitory concentration (IC50) is under 0.01 µM. Besides, the viability at 1.667 µM in the assay with PC3 cells is 3%.
For `CCOc1cc(-c2ccnc(OC)c2)nc2cc(C(=O)NCCc3cnn[nH]3)ccc12` [Compound I-195, 4-ethoxy-2-(2-methoxypyridin-4-yl)-N-[2-(1H-1,2,3-triazol-5-yl)ethyl]quinoline-7-carboxamide] the same measures were 89%, 0.05 to 0.1 µM and 19%.
As to `COc1cc(-c2nc(-c3ccc(F)cc3)nc3cc(C(=O)NCCCc4ncc[nH]4)ccc23)ccn1` [Compound I-196, 2-(4-fluorophenyl)-N-[3-(1H-imidazol-2-yl)propyl]-4-(2-methoxypyridin-4-yl)quinazoline-7-carboxamide], on hNAMPT protein, the inhibition at 1 µM was found to be 100% and the IC50 was under 0.01 µM. Besides, the viability at 1.667 µM in the assay on PC3 cells was 1%.
For `COc1cc(-c2nc(-c3ccc(F)cc3)nc3cc(C(=O)NCCCc4nnc[nH]4)ccc23)ccn1` [Compound I-197, 2-(4-fluorophenyl)-4-(2-methoxypyridin-4-yl)-N-[3-(4H-1,2,4-triazol-3-yl)propyl]quinazoline-7-carboxamide] the same measures were 97%, 0.01 to 0.05 µM and 3%.
In the case of `CCOc1cc(-c2ccc(Cl)cc2)nc2cc(C(=O)NCCCc3nnc[nH]3)ccc12` [Compound I-198], the inhibition at 1 µM at hNAMPT protein came to 94%. Also, the viability at 1.667 µM in the assay on PC3 cells worked out at 3%.
On to `CCOc1cc(-c2cc(F)ccc2OC)nc2cc(C(=O)NCCCc3nnc[nH]3)ccc12` [Compound I-199, 4-ethoxy-2-(5-fluoro-2-methoxyphenyl)-N-[3-(4H-1,2,4-triazol-3-yl)propyl]quinoline-7-carboxamide], for which, on hNAMPT protein, the inhibition at 1 µM was determined as 100% and the IC50 is 0.01 to 0.05 µM. Also, the viability at 1.667 µM with PC3 cells stood at 2%.
In the case of `CCOc1cc(-c2ccc(F)cc2)nc2cc(C(=O)NCCCc3c[nH]nc3C)ccc12` [Compound I-201, 4-ethoxy-2-(4-fluorophenyl)-N-[3-(3-methyl-1H-pyrazol-4-yl)propyl]quinoline-7-carboxamide], on hNAMPT protein, the inhibition at 1 µM came to 98% and the concentration for half-maximal inhibition (IC50) is under 0.01 µM. In the assay on PC3 cells, the viability at 1.667 µM was determined as 3%.
`CCOc1cc(-c2ccnc(C)c2)nc2cc(C(=O)NCCCc3nnc[nH]3)ccc12` [Compound I-202, 4-ethoxy-2-(2-methylpyridin-4-yl)-N-[3-(4H-1,2,4-triazol-3-yl)propyl]quinoline-7-carboxamide]: on hNAMPT protein, the inhibition at 1 µM was 98% and the IC50 was in the range of 0.01 to 0.05 µM. Besides, in the assay with PC3 cells, the viability at 1.667 µM was found to be 1%.
For `CCOc1cc(-c2ccc(F)cc2)nc2cc(C(=O)NCCc3n[nH]nc3C)ccc12` [Compound I-203, 4-ethoxy-2-(4-fluorophenyl)-N-[2-(5-methyl-2H-1,2,3-triazol-4-yl)ethyl]quinoline-7-carboxamide] the same measures were 98%, under 0.01 µM and 2%.
On the same counts, the results for `CCOc1cc(-c2ccc(F)cc2)nc2cc(C(=O)NCCCc3cc[nH]n3)ccc12` [Compound I-204, 4-ethoxy-2-(4-fluorophenyl)-N-[3-(1H-pyrazol-3-yl)propyl]quinoline-7-carboxamide] are 100%, under 0.01 µM and 2%.
On the same counts, the results for `CCOc1cc(-c2cn[nH]c2)nc2cc(C(=O)NCCCc3nnc[nH]3)ccc12` [Compound I-205, 4-ethoxy-2-(1H-pyrazol-4-yl)-N-[3-(4H-1,2,4-triazol-3-yl)propyl]quinoline-7-carboxamide] are 63%, over 0.1 µM and 4%.
With `CCOc1cc(-c2cnn(C)c2)nc2cc(C(=O)NCCCc3nnc[nH]3)ccc12` [Compound I-206, 4-ethoxy-2-(1-methyl-1H-pyrazol-4-yl)-N-[3-(4H-1,2,4-triazol-3-yl)propyl]quinoline-7-carboxamide], at hNAMPT protein, the inhibition at 1 µM came out at 66% and the IC50 was over 0.1 µM. Besides, the viability at 1.667 µM with PC3 cells was 2%.
Turning to `CCOc1cc(-c2ccccc2)nc2cc(C(=O)NCCCc3nnc[nH]3)ccc12` [Compound I-207, 4-ethoxy-2-phenyl-N-[3-(4H-1,2,4-triazol-3-yl)propyl]quinoline-7-carboxamide], on hNAMPT protein, the inhibition at 1 µM is 96% and the IC50 lay within 0.01 to 0.05 µM. Besides, in the assay on PC3 cells, the viability at 1.667 µM worked out at 2%.
On the same counts, the results for `CCOc1cc(-c2cncnc2)nc2cc(C(=O)NCCCc3nnc[nH]3)ccc12` [Compound I-208, 4-ethoxy-2-(pyrimidin-5-yl)-N-[3-(4H-1,2,4-triazol-3-yl)propyl]quinoline-7-carboxamide] are 86%, over 0.1 µM and 2%.
In the case of `CCOc1cc(-c2cccnc2)nc2cc(C(=O)NCCCc3nnc[nH]3)ccc12` [Compound I-209, 4-ethoxy-2-(pyridin-3-yl)-N-[3-(4H-1,2,4-triazol-3-yl)propyl]quinoline-7-carboxamide], on hNAMPT protein, the inhibition at 1 µM is 92% and the IC50 was 0.05 to 0.1 µM. Also, in the assay with PC3 cells, the viability at 1.667 µM stood at 1%.
On to `CCOc1cc(-c2cncc(OC)c2)nc2cc(C(=O)NCCCc3nnc[nH]3)ccc12` [Compound I-210, 4-ethoxy-2-(5-methoxypyridin-3-yl)-N-[3-(4H-1,2,4-triazol-3-yl)propyl]quinoline-7-carboxamide], for which, at hNAMPT protein, the inhibition at 1 µM came out at 94% and the IC50 fell in the range of 0.01 to 0.05 µM. Further, the viability at 1.667 µM in the assay with PC3 cells is 1%.
For `CCOc1cc(-c2cnc(Cl)cc2C)nc2cc(C(=O)NCCCc3nnc[nH]3)ccc12` [Compound I-211, 2-(6-chloro-4-methylpyridin-3-yl)-4-ethoxy-N-[3-(4H-1,2,4-triazol-3-yl)propyl]quinoline-7-carboxamide] the same measures were 50%, over 0.1 µM and 3%.
For `CCOc1cc(-c2cnccc2OC)nc2cc(C(=O)NCCCc3nnc[nH]3)ccc12` [Compound I-212, 4-ethoxy-2-(4-methoxypyridin-3-yl)-N-[3-(4H-1,2,4-triazol-3-yl)propyl]quinoline-7-carboxamide] the same measures were 69%, over 0.1 µM and 2%.
For `CCOc1cc(-c2cccnc2C)nc2cc(C(=O)NCCCc3nnc[nH]3)ccc12` [Compound I-213, 4-ethoxy-2-(2-methylpyridin-3-yl)-N-[3-(4H-1,2,4-triazol-3-yl)propyl]quinoline-7-carboxamide] the same measures were 87%, over 0.1 µM and 1%.
With `CCOc1cc(-c2ccncc2)nc2cc(C(=O)NCCCc3nnc[nH]3)ccc12` [Compound I-214, 4-ethoxy-2-(pyridin-4-yl)-N-[3-(4H-1,2,4-triazol-3-yl)propyl]quinoline-7-carboxamide], at hNAMPT protein, the inhibition at 1 µM is 97% and the IC50 lay within 0.01 to 0.05 µM. In addition, in the assay with PC3 cells, the viability at 1.667 µM came out at 1%.
For `CCOc1cc(-c2cccc(C(F)(F)F)c2)nc2cc(C(=O)NCCCc3nnc[nH]3)ccc12` [Compound I-215, 4-ethoxy-N-[3-(4H-1,2,4-triazol-3-yl)propyl]-2-[3-(trifluoromethyl)phenyl]quinoline-7-carboxamide], at hNAMPT protein, the inhibition at 1 µM was found to be 93% and the IC50 was 0.05 to 0.1 µM. The viability at 1.667 µM in the assay with PC3 cells was 1%.
For `CCOc1cc(-c2cccc(OC(F)(F)F)c2)nc2cc(C(=O)NCCCc3nnc[nH]3)ccc12` [Compound I-216, 4-ethoxy-N-[3-(4H-1,2,4-triazol-3-yl)propyl]-2-[3-(trifluoromethoxy)phenyl]quinoline-7-carboxamide] the same measures were 92%, 0.05 to 0.1 µM and 1%.
For the molecule `CCOc1cc(-c2ccc(C(F)(F)F)nc2)nc2cc(C(=O)NCCCc3nnc[nH]3)ccc12` [Compound I-217, 4-ethoxy-N-[3-(4H-1,2,4-triazol-3-yl)propyl]-2-[6-(trifluoromethyl)pyridin-3-yl]quinoline-7-carboxamide], on hNAMPT protein, the inhibition at 1 µM worked out at 94% and the IC50 lay within 0.01 to 0.05 µM. Moreover, the viability at 1.667 µM with PC3 cells came out at 2%.
With `CCOc1cc(-c2ccnc(C(F)(F)F)c2)nc2cc(C(=O)NCCCc3nnc[nH]3)ccc12` [Compound I-218, 4-ethoxy-N-[3-(4H-1,2,4-triazol-3-yl)propyl]-2-[2-(trifluoromethyl)pyridin-4-yl]quinoline-7-carboxamide], on hNAMPT protein, the inhibition at 1 µM came out at 93% and the IC50 lay within 0.05 to 0.1 µM. In the assay on PC3 cells, the viability at 1.667 µM came out at 2%.

By inhibition is commonly meant the drop in the measured response relative to a control, in per cent. A word on the IC50: it is the concentration needed to halve the response being measured.
